Reference: US5880157A, “Derivatives of tetramethylcyclopropane” (Yissum Research Development Company of the Hebrew …, priority 1994, dated 1999)

Key:
[1] = tested on: maximal electroshock seizure (MES); assay: maximal electroshock seizure (MES) test, rats; details: for ED50: Rattus norvegicus, read-out: MES ED50; for MES PI (protective index, TD50/ED50) / effective dose in the MES test (ED50) compared with Valproic Acid: rats; for effective dose in the MES test (ED50) compared with Valproic Acid: in words
Source text: (§1) All compounds described before were screened for their ability to protect against seizures in two different models of epilepsy: the maximal electroshock seizure (MES) model; and the subcutaneous pentylenetetrazol (Metrazol) seizure threshold (s.c.Met) test. Agents effective in the MES model have been correlated with the ability to prevent the seizure spread, whereas those agents effective in the s.c. Met model have been correlated with the ability to raise the threshold for excitation of neural tissue. The PI value, the protective index, is calculated as described below.
(§2) The MES test is the most commonly used test to assess activity against these types of seizures.

[2] = tested on: subcutaneous pentylenetetrazol (Metrazol) seizure threshold; assay: subcutaneous pentylenetetrazol (Metrazol) seizure threshold (s.c. Met) test, rats; details: for ED50: Rattus norvegicus, sc, read-out: scMet ED50; for scMet PI (protective index, TD50/ED50): rats
Source text: as §1, §2

[3] = tested on: maximal electroshock seizure (MES); assay: maximal electroshock seizure (MES) test, mice; details: for ED50: Mus musculus, read-out: MES ED50; for MES PI (protective index, TD50/ED50) / effective dose in the MES test (ED50) compared with Valproic Acid: mice; for effective dose in the MES test (ED50) compared with Valproic Acid: in words
Source text: as §1, §2

[4] = tested on: subcutaneous pentylenetetrazol (Metrazol) seizure threshold; assay: subcutaneous pentylenetetrazol (Metrazol) seizure threshold (s.c. Met) test, mice; details: for ED50: Mus musculus, sc, read-out: scMet ED50; for scMet PI (protective index, TD50/ED50): mice; for effective doses in the s.c. Met test compared with VPA or ETS: mouse model, in words
Source text: as §1, §2

[5] = neurotoxicity, positional sense test and gait and stance test, rats (p.o.); assay type: in vivo, rat
Description: (§3) Neurotoxicity of the described compounds was assessed in mice (i.p. administration) by the rotorod ataxia test (See Swinyard et al., Supra, pages 85-100), and also in some cases in rats (p.o. administration) by the positional sense test and gait and stance test (see Swinyard above) .

[6] = neurotoxicity, rotorod ataxia test, mice (i.p.); assay type: in vivo, mouse
Description: as §3

[7] = in words; literature; cited from earlier work

SMILES	ED50 [1]	MES PI (protective index, TD50/ED50) [1]	effective dose in the MES test (ED50) compared with Valproic Acid [1]	ED50 [2]	scMet PI (protective index, TD50/ED50) [2]	ED50 [3]	MES PI (protective index, TD50/ED50) [3]	effective dose in the MES test (ED50) compared with Valproic Acid [3]	ED50 [4]	scMet PI (protective index, TD50/ED50) [4]	effective doses in the s.c. Met test compared with VPA or ETS [4]	TD50 (median neurological toxic dose) [5]	TD50 ([6]; mouse, ip, read-out: TD50 (median neurological toxic dose))	adverse side effects [7]	TD50 (median neurological toxic dose) [6]	TD50 ([5]; rat, po, read-out: TD50 (median neurological toxic dose))
CNC(=O)C1C(C)(C)C1(C)C [Compound 1, N-Methyl-2,2,3,3-tetramethylcyclopropanecarboxamide]	82 mg/kg	2.0	lower effective dose in the MES test	45 mg/kg	3.6	98 mg/kg	0.8	lower effective dose in the MES test	39 mg/kg	2.1	lower than that found for either VPA or ETS	163 mg/kg	83 mg/kg	–	–	–
CCCC(CCC)C(=O)O [Valproic Acid, reference compound]	490 mg/kg	–	–	180 mg/kg	–	–	–	–	149 mg/kg	–	–	–	–	considerable adverse side effects including hepatoxicity and teratogenicity	–	–
CCC1(C)CC(=O)NC1=O (stereo not shown) [ETS, Ethosuximide, reference compound]	> 1200 mg/kg	–	–	54 mg/kg	–	> 1000 mg/kg	–	–	130 mg/kg	–	–	–	–	–	441 mg/kg	–
CC1(C)C(C(=O)NCC(N)=O)C1(C)C [Compound 2, N-[(2,2,3,3-Tetramethylcyclopropyl)carbonyl]-glycinamide]	82 mg/kg	> 6.1	lower effective dose in the MES test	> 250 mg/kg	–	173 mg/kg	1.5	lower effective dose in the MES test	115 mg/kg	2.3	lower than that found for either VPA or ETS	–	–	–	259 mg/kg	> 500 mg/kg
CC1(C)C(C(N)=O)C1(C)C [Compound 3, 2,2,3,3-Tetramethylcyclopropanecarboxamide]	> 250 mg/kg	–	–	52 mg/kg	7.3	> 120 mg/kg	–	–	57 mg/kg	1.7	lower than that found for either VPA or ETS	381 mg/kg	–	–	99 mg/kg	–
